One data set has as its system Male NMRI mice. Briefly: Amphetamine sensitisation: inhibition of the sensitised behavioural response to amphetamine. The data set is classed as in vivo, mouse. The conditions noted are these: Mus musculus; amphetamine-pretreated mice; s.c. 30 min before D-amphetamine challenge 1.25 mg/kg s.c.; 30 min test; S.D. in brackets. How it is done: Subjects. […] The animals were housed 6 mice pr cage in a 12-hr light/dark cycle under controlled conditions for regular in-door temperature (21±2° C.) and humidity (55±5%) with food and tap water available ad libitum.
Experimental procedure. […] 5×8 infrared light sources and photocells interspaced by 4 cm monitor the locomotor activity.
Administration of compounds.
Data analyses. […] A therapeutic index value can subsequently be calculated by dividing the first ED50 by the second.

Another data set has as its system DA neurons in the VTA. Briefly: Electrophysiology: spontaneous DA cell firing in the VTA of anaesthetised rats. The data set is classed as in vivo, rat. To be noted: mean ± SEM. How it is done:
Subjects. Male Wistar rats (Harlan, The Netherlands) weighing 270-340 g were used. The animals were housed under a 12-hr light/dark cycle under controlled conditions for regular in-door temperature (21±2° C.) and humidity (55±5%) with food and tap water available ad libitum.
Experimental procedure. The rats were anaesthetised with an intraperitoneal injection of chloral hydrate (400 mg/kg). A femoral vein catheter was then inserted for supplementary anaesthetic injections (100 mg/kg) and drug administration. Animals were then mounted in a stereotaxic frame, the skull was exposed, and a hole (0.5×0.5 cm) was drilled above the ventral tegmental area. Extracellular single-cell recordings were performed using electrodes pulled from glass capillaries and filled with 2% Pontamine Sky Blue in 2 M NaCl. The tip of the electrode was broken under microscopic control, yielding an impedance of 2.0-8.0 MΩ a 135 Hz. The electrode was then lowered into the brain, using a hydraulic microdrive, aimed at the following coordinates: 5.5-5.0 mm posterior to Bregma; 0.5-0.9 mm lateral to the midline. Extracellular action potentials were amplified, discriminated and monitored on an oscilloscope and an audiomonitor. Discriminated spikes were collected and analysed using Spike 2 software (Cambridge Electronic Design Ltd., Cambridge, UK) on a PC-based system connected to a CED 1401 interface unit (Cambridge Electronic Design Ltd.). Presumed dopaminergic neurons were typically found 7.0-8.5 mm beneath the brain surface and were characterised by (1) a slow and irregular firing pattern (0.5-10 Hz), and (2) triphasic action potentials with a predominant positive component, a negative component followed by a minor positive component, with an overall duration >2.5 ms (Bunney et al. 1973, J. Pharmacol. Exp. They., 185, 560-571.).
Administration of compounds. Once a stable basal firing rate was obtained, cumulated doses of N-(2,6-Dimethyl-4-morpholin-4-yl-phenyl)-3,3-dimethyl-butyramide ([…]; volume range 0.12-1.0 ml/kg) were administered i.v., each injection being separated by at least 3 min. These i.v. doses match the s.c. dose range of 0-10 mg/kg.
Statistical analysis. Drug effects were assessed by statistical comparison of the mean firing rate calculated from the 2-3 min period immediately before the first drug administration (baseline) to the mean firing rate calculated from at least 60 s at the maximal drug effect. Data were analysed statistically by a one-way ANOVA followed by Student-Newman-Keuls posthoc test. A p-value less than 0.05 was considered significant.

The next data set concerns Male Wistar rats. Briefly: Conditioned avoidance response. The data set is classed as in vivo, rat. The conditions noted are these: for % inhibition of avoidance (Std. dev.) Relative to baseline: rats. How it is done: Subjects. Male Wistar rats (Taconic, Denmark) weighing 150 g at the beginning of the study were used. The rats were housed in pairs and maintained on a 12 h light/dark cycle (lights on 06:00). The animals were fed once daily (approx. 6 pellets/rat) in order to keep the rats at 80% of their free-feeding weight. Water was available ad libitum. Temperature (21±1° C.) and relative humidity (55±5%) were automatically controlled.
Experimental procedure. Conditioned avoidance testing was conducted using four automated shuttle-boxes (ENV-010M, MED-Associates) each placed in a sound-attenuated chamber. Each box was divided into two compartments by a partition with an opening. The position of the animal and crossings from one compartment to the other were detected by two photocells placed on either side of the dividing wall. Upon presentation of the conditioned stimuli (CS), tone and light, the animals have 10 s to cross to the other compartment of the shuttle-box in order to turn the CS off (end the trial) and avoid the appearance of the unconditioned stimulus (UCS). If the rat remained in the same compartment for more than 10 s, the UCS is presented as 0.5 mA scrambled foot-shocks until escape was performed or 10 s in maximal duration. The following behavioural variables were evaluated: avoidance (response to CS within 10 s); escape (reponse to CS+UCS); escape failures (failure to respond); intertrial crosses and locomotor activity. The rats were habituated to the shuttle-box 3 min before each test session. During training each test session consists of 30 trials with intertrial intervals varying randomly between 20 s and 30 s. Training was carried until the rats display an avoidance of 80% or more, on 3 consecutive days. […]
Statistical analyses. The effects of compounds on avoidance and escape failure behaviours were statistically evaluated by means of a two-way repeated measures ANOVA followed by post hoc comparisons (Student-Newman-Keuls Method) when appropriate. […]

For `Cc1cc(N2CCOCC2)cc(C)c1NC(=O)CC(C)(C)C` [N-(2,6-dimethyl-4-morpholin-4-yl-phenyl)-3,3-dimethyl-butyramide], the ED50 in the data set with Male NMRI mice was 1.6 mg/kg. Further, the “Spontaneous DA cell firing rate as a percentage of baseline firing rate” value with DA neurons in the VTA (cumulated dose 0.03 mg/kg i.v.) was 89.8 ± 4.5 (5) percentage of baseline firing rate; in the data set on DA neurons in the VTA (cumulated dose 0.1 mg/kg i.v.), 81.0 ± 4.0 (5) percentage of baseline firing rate; in the data set with DA neurons in the VTA (cumulated dose 0.25 mg/kg i.v.), 74.1 ± 6.3 (4) percentage of baseline firing rate; in the data set on DA neurons in the VTA (cumulated dose 0.5 mg/kg i.v.), 68.1 ± 6.0 (4) percentage of baseline firing rate; with DA neurons in the VTA (cumulated dose 1.0 mg/kg i.v.) it was 57.1 ± 7.9 (3) percentage of baseline firing rate. Moreover, the “% inhibition of avoidance (Std. dev.) Relative to baseline” value with Male Wistar rats (2.5 mg/kg s.c. 30 min before the test) is 1 (14) %; in the data set with Male Wistar rats (5 mg/kg s.c. 30 min before the test), 71%. In the data set with Male Wistar rats (2.5 and 5 mg/kg s.c., data not shown), the “Escape failures (effect on motor performance)” value is “None of the tested doses caused any incidences of escape failures”.

Broadly, the ED50 is the midpoint of the dose-response relation.

Source of the values: patent US20120165325A1, “Stable forms of N-(2,6-Dimethyl-4-morpholin-4-yl-phenyl)-3,3-dimethyl-butyramide” (H. Lundbeck A/S, priority 2009, published 2012).
